Test results reported in US7285683B2, “Bicyclic and tricyclic cannabinoids” (University of Connecticut, priority 2001, dated 2007).
Where two headings read alike, the source gives them in different places.

Key:
CB1 cannabinoid receptor = molecular target: T1, CB1 cannabinoid receptor (Rattus norvegicus, UniProt P20272); assay: CB1 receptor binding assay, [3H] CP-55,940 displacement, rat forebrain membranes
T1 construct: membranes were prepared from rat forebrain membranes; from tissue; host or cells: rat forebrain
T1 sequence (P20272 whole entry): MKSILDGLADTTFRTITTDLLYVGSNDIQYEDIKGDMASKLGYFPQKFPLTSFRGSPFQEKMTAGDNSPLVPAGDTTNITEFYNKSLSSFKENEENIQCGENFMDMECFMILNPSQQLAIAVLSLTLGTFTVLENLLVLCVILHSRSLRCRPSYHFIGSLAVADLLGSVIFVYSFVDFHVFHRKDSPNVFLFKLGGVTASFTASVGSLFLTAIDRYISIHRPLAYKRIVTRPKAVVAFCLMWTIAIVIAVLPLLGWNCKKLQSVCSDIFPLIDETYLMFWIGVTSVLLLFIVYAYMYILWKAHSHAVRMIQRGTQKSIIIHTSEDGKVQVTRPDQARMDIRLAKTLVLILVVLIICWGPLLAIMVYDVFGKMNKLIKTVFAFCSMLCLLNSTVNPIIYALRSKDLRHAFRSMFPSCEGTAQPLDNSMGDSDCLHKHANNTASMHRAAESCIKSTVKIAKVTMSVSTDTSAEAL
Method: Some inventive analogs were tested for CB2 receptor binding affinity and for CB1 receptor affinity (to determine selectivity). As used herein, “binding affinity” is represented by the IC50 value which is the concentration of an analog required to occupy the 50% of the total number (Bmax) of the receptors. The lower the IC50 value the higher the binding affinity. […] For the CB1 receptor binding studies, membranes were prepared from rat forebrain membranes according to the procedure of P. R. Dodd et al, A Rapid Method for Preparing Synaptosomes: Comparison with Alternative Procedures, Brain Res., 107-118 (1981). The binding of the novel analogues to the CB1 cannabinoid receptor was assessed as described in W. A. Devane et al, Determination and Characterization of a Cannabinoid Receptor in a Rat Brain, Mol. Pharmacol., 34, 605-613 (1988) and A. Charalambous et al, 5′-azido Δ^8- THC: A Novel Photoaffinity Label for the Cannabinoid Receptor, J. Med. Chem., 35, 3076-3079 (1992) with the following changes. The above articles are incorporated by reference herein.
Membranes, previously frozen at −80° C., were thawed on ice. To the stirred suspension was added three volumes of TME (25 mM Tris-HCl buffer, 5 mM MgCl2 and 1 mM EDTA) at a pH 7.4. The suspension was incubated at 4° C. for 30 min. At the end of the incubation, the membranes were pelleted and washed three times with TME.
The treated membranes were subsequently used in the binding assay described below. Approximately 30 μg of membranes were incubated in silanized 96-well microtiter plate with TME containing 0.1% essentially fatty acid-free bovine serum albumin (BSA), 0.8 nM [^3H] CP-55,940, and various concentrations of test materials in a final volume of 200 μL. The assays were incubated for 1 hour at 30° C. and then immediately filtered using Packard Filtermate 196 harvester and Whatman GF/C filterplates and washed with wash buffer (TME) containing 0.5% BSA. Radioactivity was detected using MicroScint 20 scintillation cocktail added directly to the dried filterplates, and the filterplates were counted using a Packard Instruments Top-Count. Nonspecific binding was assessed using 100 nM CP-55,940. Data collected from three independent experiments performed with duplicate determinations was normalized between 100% and 0% specific binding for [^3H] CP-55,940, determined using buffer and 100 nM CP-55,940. The normalized data was analyzed using a 4-parameter nonlinear logistic equation to yield IC50 values. Data from at least two independent experiments performed in duplicate was used to calculate IC50 values which were converted to Ki values using the assumptions of Cheng et al, Relationship Between the Inhibition Constant (Ki) and the concentration of Inhibitor which causes 50% Inhibition (IC50) of an Enzymatic Reaction, Biochem. Pharmacol., 22, 3099-3102, (1973), which is incorporated by reference herein.

CB2 receptor = molecular target: T2, CB2 receptor (Mus musculus, UniProt P47936); assay: CB2 receptor binding assay, [3H] CP-55,940 displacement, mouse spleen membranes
T2 construct: membranes were prepared from frozen mouse spleen; from tissue; host or cells: mouse spleen
T2 sequence (P47936 whole entry): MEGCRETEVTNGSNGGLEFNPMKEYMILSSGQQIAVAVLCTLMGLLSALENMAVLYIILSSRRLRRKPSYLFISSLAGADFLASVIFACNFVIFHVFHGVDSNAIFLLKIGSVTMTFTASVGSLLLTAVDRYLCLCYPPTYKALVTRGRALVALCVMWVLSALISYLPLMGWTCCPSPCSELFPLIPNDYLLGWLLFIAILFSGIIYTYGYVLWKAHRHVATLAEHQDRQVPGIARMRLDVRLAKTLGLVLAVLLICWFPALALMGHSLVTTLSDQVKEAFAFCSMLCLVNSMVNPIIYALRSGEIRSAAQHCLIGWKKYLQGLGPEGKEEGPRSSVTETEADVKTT

[1] = Table 1, bicyclic-cannabinoid analogs, rat forebrain membranes, 0.8 nM [3H] CP-55,940, read-out: Ki in nM for the CB1 Receptor

| Structure (SMILES) | Ki (CB1 cannabinoid receptor) | Ki (CB2 receptor) | melting point | Ki (CB1 cannabinoid receptor; [1]) | Ki (CB1 cannabinoid receptor; Table 2, hexahydrocannabinol analogs, rat forebrain membranes, 0.8 nM [3H] CP-55,940, read-out: Ki in nM for the CB1 Receptor) |
| --- | --- | --- | --- | --- | --- |
| CC(C)(CCCCCCBr)c1cc(O)c2c(c1)OC(C)(C)[C@@H]1CCC(=O)C[C@@H]21 (relative stereo) [Compound 4d, (−)-trans-3-(7′-bromo-1′,1′-dimethylheptyl)-6,6a,7,8,10,10a-hexahydro-1-hydroxy-6,6-dimethyl-9H-dibenzo[b,d]pyran-9-one] | 1 nM | 11.8 nM | – | – | – |
| CCCCCCC1(c2cc(O)c3c(c2)OC(C)(C)[C@@H]2CCC(=O)C[C@@H]32)SCCS1 (single isomer, unassigned) [Compound 4c, (−)-trans-3-(2-hexyl-1,3-dithiolan-2-yl)-6,6a,7,8,10,10a-hexahydro-1-hydroxy-6,6-dimethyl-9H-dibenzo[b,d]pyran-9-one] | 11.7 nM | 2.3 nM | 62 to 64 °C (dec.) | – | – |
| CCCCCCC1(c2cc(O)c([C@@H]3CC(=O)[C@@H]4C[C@H]3C4(C)C)c(O)c2)CCCC1 [Compound 2a, (4R)-4-[4-(1′,1′-cyclopentylheptyl)-2,6-dihydroxyphenyl]-6,6-dimethyl-2-norpinanone] | 50.6 nM | 0.4 nM | 187 to 188 °C | – | – |
| CCCCC=CC1(c2cc(O)c([C@@H]3CC(=O)[C@@H]4C[C@H]3C4(C)C)c(O)c2)CCCC1 [Compound 2b, (4R)4-[4-(1′,1′-cyclopentylhept-2′-enyl)-2,6-dihydroxyphenyl]-6,6-dimethyl-2-norpinanone] | 74.5 nM | 0.4 nM | 167 to 168 °C | – | – |
| CCCCCCC1(c2cc(O)c([C@@H]3CC(=O)C4CC3C4(C)C)c(O)c2)SCCS1 (stereo partly drawn) [Compound 2c, (4R)-4-[4-(2-hexyl-1,3-dithiolan-2-yl)-2,6-dihydroxyphenyl]-6,6-dimethyl-2-norpinanone] | – | 10.9 nM | 160 to 161 °C (dec.) | 224 nM | – |
| CC(C)(CCCCCCBr)c1cc(O)c([C@@H]2CC(=O)[C@@H]3C[C@H]2C3(C)C)c(O)c1 [Compound 2d, (4R)4-[4-(7′-bromo-1′,1′-dimethylheptyl)-2,6-dihydroxyphenyl]-6,6-dimethyl-2-norpinanone] | 10.6 nM | 9.3 nM | – | – | – |
| C#CCCCCC(C)(C)c1cc(O)c([C@@H]2CC(=O)[C@@H]3C[C@H]2C3(C)C)c(O)c1 [Compound 2e, (4R)-4-[4-(1′,1′-dimethylhept-6′-ynyl)-2,6-dihydroxyphenyl]-6,6-dimethyl-2-norpinanone] | 30.8 nM | 0.2 nM | – | – | – |
| CCCCCCC1(c2cc(O)c([C@@H]3CC(O)[C@@H]4C[C@H]3C4(C)C)c(O)c2)SCCS1 (stereo partly drawn) [Compound 3, (4R)4-[4-(2-hexyl-1,3-dithiolan-2-yl)-2,6-dihydroxyphenyl]-6,6-dimethyl-2β-norpinanol and (4R)-4-[4-(2-hexyl-1,3-dithiolan-2-yl)-2,6-dihydroxyphenyl]-6,6-dimethyl-2α-norpinanol] | – | 76.8 nM | – | 133 nM | – |
| CCCCCCC1(c2cc(O)c3c(c2)OC(C)(C)[C@@H]2CCC(=O)C[C@@H]32)CCCC1 [Compound 4a, (−)-trans-3-(1′,1′-cyclopentylheptyl)-6,6a,7,8,10,10a-hexahydro-1-hydroxy-6,6-dimethyl-9H-dibenzo[b,d]pyran-9-one] | 0.1 nM | 2.6 nM | – | – | – |
| CCCCC=CC1(c2cc(O)c3c(c2)OC(C)(C)[C@@H]2CCC(=O)C[C@@H]32)CCCC1 [Compound 4b, (−)-trans-3-(1′,1′-cyclopentylhept-2′-enyl)-6,6a,7,8,10,10a-hexahydro-1-hydroxy-6,6-dimethyl-9H-dibenzo[b,d]pyran-9-one] | 0.2 nM | 0.2 nM | – | – | – |
| C#CCCCCC(C)(C)c1cc(O)c2c(c1)OC(C)(C)[C@@H]1CCC(=O)C[C@@H]21 [Compound 4e, (−)-trans-3-(1′,1′-dimethylhept-6′-ynyl)-6,6a,7,8,10,10a-hexahydro-1-hydroxy-6,6-dimethyl-9H-dibenzo[b,d]pyran-9-one] | 10.7 nM | 4.1 nM | – | – | – |
| CCCCCCC1(c2cc(O)c3c(c2)OC(C)(C)[C@@H]2CC[C@@H](O)C[C@@H]32)SCCS1 [Compound 5, 6a,7,8,9,10,10a-Hexahydro-3-(2-hexyl-1,3-dithiolan-2-yl)-6,6-dimethyl-6H-dibenzo[b,d]pyran-1,9β-diol] | – | 13.9 nM | – | – | – |
| C#CCCCCC(C)(C)c1cc(O)c2c(c1)OC(C)(C)[C@@H]1CC[C@H](O)C[C@@H]21 [Compound 6e, 6a,7,8,9,10,10a-Hexahydro-3-(1′,1′-dimethylhept-6′-ynyl)-6,6-dimethyl-6H-dibenzo[b,d]pyran-1,9α-diol] | – | 12 nM | – | – | 11.3 nM |
| CC(C)(CCCCCCBr)c1cc(O)c2c(c1)OC(C)(C)[C@@H]1CC[C@@H](N=[N+]=[N-])C[C@@H]21 [Compound 7d, 1-Hydroxy-3-(7′-bromo-1′,1′-dimethylheptyl)-6,6-dimethyl-9β-azido-6a,7,8,8,10,10a-hexahydro-6H-dibenzo[b,d]pyran] | 1.6 nM | 13.7 nM | – | – | – |
| CCCCCCC(C)(C)c1cc(O)c2c(c1)OC(C)(C)[C@@H]1CC[C@@H](N=[N+]=[N-])C[C@@H]21 [Compound 7g, 1-Hydroxy-3-(1′,1′-dimethylheptyl)-6,6-dimethyl-9β-azido-6a,7,8,8,10,10a-hexahydro-6H-dibenzo[b,d]pyran] | 5 nM | 10.2 nM | – | – | – |
| CC(C)(CCCCCCI)c1cc(O)c2c(c1)OC(C)(C)[C@@H]1CC[C@@H](N=[N+]=[N-])C[C@@H]21 [Compound 8, 1-Hydroxy-3-(7′-iodo-1′,1′-dimethylheptyl)-6,6-dimethyl-9β-azido-6a,7,8,8,10,10a-hexahydro-6H-dibenzo[b,d]pyran] | 0.8 nM | 0.9 nM | – | – | – |
| CC(C)(CCCCC=CI)c1cc(O)c2c(c1)OC(C)(C)[C@@H]1CC[C@@H](N=[N+]=[N-])C[C@@H]21 [Compound 9, 1-Hydroxy-3-(7′-iodo-1′,1′-dimethylhept-6′-enyl)-6,6-dimethyl-9β-azido-6a,7,8,8,10,10a-hexahydro-6H-dibenzo[b,d]pyran] | 0.7 nM | 0.7 nM | – | – | – |
